Where “and” joins values, the source holds several entries; their conditions need not be identical. Identical values can stand only once. Entries after “also recorded” stand apart in the source; their conditions may differ.
Assays:
[1] = test system: Mouse cortical tubule cells (MCT); experiment: FINs/ferroptocide, 7-AAD/annexin V flow cytometry; type: cell-based; settings: for double-negative events (7-AAD/annexin V): MCT, alone (DMSO) or with Fer-1 1 µM, Nec-1s 30 µM, Nec-1f 30 µM
Experimental: (§1) To induce necroptosis in a human cell line, HT29 cells were stimulated at the indicated time points with 20 ng/ml human TNFα (Biolegend), 1 μM SMAC-mimetics (Birinapant, Chemietek), and 20 μM zVAD-fmk (Selleckchem, herein referred to as zVAD). For the induction of necroptosis in NIH3T3 cells, cells were incubated with 20 ng/ml TNF-α and 20 μM zVAD for indicated time points. […] Cells were seeded in six-well plates or petri dishes. […] After indicated time points, cells were collected and prepared for flow cytometry, immunoblotting, and/or LDH release assays.
(§2) Cells were harvested and the pellets were washed twice in PBS and stained with 5 μl of 7-AAD (BD Biosciences) and 5 μl of annexin-V-FITC (BD Biosciences) added to 100 μl annexin-V binding buffer (BD Biosciences). After 15 min, cells were recorded on the LSRII with the FACS Diva 6.1.1 software (BD Biosciences) and subsequently analyzed with the FlowJo v10 software (Tree Star).

[2] = test system: NIH3T3 cells; experiment: Simultaneous ferroptosis and necroptosis (RSL3 plus TZ), 7-AAD/annexin V flow cytometry; type: cell-based, murine; settings: for Rescue from necrosis induced by RSL3 plus TZ: NIH3T3, 16 h
Experimental: as §1, §2

[3] = test system: C57Bl/6 N mice; experiment: Bilateral kidney ischemia-reperfusion injury, severe model (38 min ischemia), survival; settings: single dose 2 mg/kg body weight before reperfusion
[4] = test system: primary murine tubular cells; experiment: RSL3-induced LDH release of primary kidney tubular cells; type: cell-based; settings: RSL3 14 h; for Effect on RSL3-induced LDH release: primary renal tubular cells
Experimental: (§3) The LDH release of cells or of freshly isolated kidney tubules was measured according to manufacturers’ instructions at indicated time points. In brief, an aliquot of the supernatant was taken and Lysis Solution was added for 45 min to induce maximal LDH release before another aliquot of the supernatant was taken. Subsequently, the supernatants were incubated with CytoTox 96® Reagent for 15 min protected from light at room temperature before adding Stop Solution. Absorbance was measured at 490 nm.
Generation, cell culture, and induction of cell death in primary murine tubular cells. Murine tubular cells were generated by outgrowth from isolated renal tubules (see above). Primary murine tubules were placed in six-well plates containing Dulbecco’s Modified Eagle Medium F-12 Nutrient Mixture without phenol red (DMEM/F12, Thermo Fisher), supplemented with 0.01 mg/ml recombinant human insulin, 5.5 μg/ml human transferrin, 0.005 μg/ml Na2SeO3 (ITS without linoleic acid, Sigma Aldrich), 50 nM hydrocortisone, 100 U/ml penicillin, and 100 μg/ml streptomycin (Pen/Strep, Thermo Fisher). After two days, the outgrown primary murine tubular cells were washed with PBS and a fresh medium was added. When the number of primary murine tubular cells reached approximately 50% confluence, the cells were removed from the six-well plates using Trypsin-EDTA (Thermo Fisher), washed with medium and a Ficoll Paque Plus (Sigma Aldrich) gradient was performed to remove any dead cells, and debris from the murine renal tubules. Cells were washed twice with PBS and seeded in six-well plates with medium. Once the number of grown cells reached approximately 50% confluence, they were washed with PBS and treated with type 2 FIN: RSL3 (also see Supplementary Table 2 for details). After 14 h, medium and cells were collected and prepared for LDH release assay. Images of the treated primary murine tubular cells were obtained using a 20×/0.30 PH1 objective on a Leica DMi1 microscope.

[5] = test system: freshly isolated primary murine renal tubules; experiment: RSL3-induced LDH release of freshly isolated kidney tubules; type: cell-based; settings: RSL3 2 h; for LDH release: freshly isolated kidney tubules, 5 mM glycine, alone (DMSO) or with Fer-1 or Nec-1f; for Effect on RSL3-induced LDH release: freshly isolated tubules, glycine medium
Experimental: as §3
Primary murine renal tubules were isolated following a modified previously established protocol. […] Kidney slices of each kidney were transferred in 2 ml reaction tube containing 2 mg/ml collagenase type II in incubation solution (48 μg/ml trypsin inhibitor, 25 μg/ml DNAse I, 140 mM NaCl, 0.4 mM KH2PO4, 1.6 mM K2HPO4 · 3 H2O, 1 mM MgSO4 · 7 H2O, 10 mM CH3COONa · 3 H2O, 1 mM α-ketoglytarate and 1.3 mM Ca-gluconate) and digested for 5 min at 37 °C, 850 rpm. Due to the presence of damaged tubules, the first resulting supernatant was discarded and 1 ml of 2 mg/ml collagenase type II in incubation solution was added to the kidney slices and digested for 5 min at 37 °C, 850 rpm. The supernatant was collected and transferred in a 2 ml reaction tube containing 1 ml ice-cold sorting solution (0.5 mg/ml bovine albumin in incubation solution). The reaction tubes were left on ice for the tubules to precipitate. The supernatant was removed and the tubules were washed twice with ice-cold incubation solution. Once the tubules precipitated the supernatant was removed and the ice-cold sorting solution was added (the volume was adjusted depending on the number of samples needed for the experiment). Tubules were distributed in a twenty-four-well plate containing Dulbecco’s Modified Eagle Medium F-12 Nutrient Mixture without phenol red (DMEM/F12, Thermo Fisher), supplemented with 0.01 mg/ml recombinant human insulin, 5.5 μg/ml human transferrin, 0.005 μg/ml sodium selenite (Na2SeO3) (ITS without linoleic acid, Sigma Aldrich), 50 nM hydrocortisone, 100 U/ml penicillin, and 100 μg/ml streptomycin (Pen/Strep, Thermo Fisher).
All of the experiments performed contain a negative control to assess LDH release at 0 h of incubation as a quality control. No more than 10% LDH release in these negative controls was tolerated. […] Isolated murine renal tubules were placed in twenty four-well plates containing the respective agents diluted in Dulbecco’s Modified Eagle Medium F-12 Nutrient Mixture without phenol red (DMEM/F12, Thermo Fisher), supplemented with 0.01 mg/ml recombinant human insulin, 5.5 μg/ml human transferrin, 0.005 μg/ml Na2SeO3 (ITS without linoleic acid, Sigma Aldrich), 50 nM hydrocortisone, 100 U/ml penicillin, and 100 μg/ml streptomycin (Pen/Strep, Thermo Fisher). […]

[6] = Inhibited co-autoxidation of egg phosphatidylcholine liposomes and STY-BODIPY (radical-trapping antioxidant activity)
Experimental: Inhibitors were then added (5 μl aliquots) at desired concentrations to the appropriate wells followed by vigorous mixing. […] Experiments were performed in triplicate using HPLC grade solvents and kinetic data is given as an average of three independent measurements. […]

[7] = test system: NIH3T3 cells; experiment: Ferroptosis inducers (FINs)/ferroptocide, 7-AAD/annexin V flow cytometry; type: cell-based, murine; settings: for cells in 7-AAD/annexin V flow cytometry (FigS9b): individual replicates
[8] = Ferroptocide-induced cell death

| Compound | double-negative events (7-AAD/annexin V) ([1]; 1.13 µM RSL3 6 h) | double-negative events (7-AAD/annexin V) ([1]; 5 µM erastin 24 h) | double-negative events (7-AAD/annexin V) ([1]; 10 µM FIN56 24 h) | Rescue from necrosis induced by RSL3 plus TZ [2] | Survival after severe renal IRI vs vehicle (Kaplan-Meier, words) [3] | Effect on RSL3-induced LDH release [4] | LDH release [5] | Effect on RSL3-induced LDH release [5] | cells in 7-AAD/annexin V flow cytometry (FigS9b) ([7]; Erastin-induced ferroptosis) | cells in 7-AAD/annexin V flow cytometry (FigS9b) ([7]; FIN56-induced ferroptosis) | cells in 7-AAD/annexin V flow cytometry (FigS9b) ([7]; FINO2-induced ferroptosis) | cells in 7-AAD/annexin V flow cytometry (FigS9b) [7, 8] | cells in 7-AAD/annexin V flow cytometry (FigS9b) ([7]; RSL3-induced ferroptosis) | further results |
| --- | --- | --- | --- | --- | --- | --- | --- | --- | --- | --- | --- | --- | --- | --- |
| CN1C(=O)C(Cc2c[nH]c3c(Cl)cccc23)NC1=S (centres unmarked) [Nec-1f] | 93.7% and 87.8% and 51.4% | 79.8% and 85.4% and 81.9% and 88.8% | 93.7% and 87.9% and 91.7% | Nec-1f does; also recorded: maintained cell viability | significantly higher | prevented | 18.43% and 23.14% and 28.56% | reduction of LDH release; also recorded: significantly attenuated | 83.1% and 77.0% and 78.0% and 47.0% | 88.0% and 64.0% | 75.0% and 57.0% | 80.0% and 8.0% | 80.0% and 84.0% | Effect on FINO2-induced death ([1]; MCT cells): failed to prevent; Effect on RSL3-induced annexin V / 7-AAD positivity ([1]; MCT cells): inhibited; 7-AAD/annexin V flow cytometry, source data of bar graph Fig3c ([2]; NIH3T3, RSL3 (1.13 µM) + TZ 16 h with inhibitor): 75.7% and 76% and 68%; LDH release ([4]; primary kidney tubular cells, alone (DMSO) or with Fer-1 or Nec-1f 30 µM): 29.82% and 33.38% and 28.13%; RTA activity in co-autoxidation of egg phosphatidylcholine lipids in STY-BODIPY-embedded liposomes [6]: devoid of RTA activity; ΔSTY-BODIPY ([6]; 2 µM Nec-1f, time 53820 s): -0.4045 µM; ΔSTY-BODIPY ([6]; 2 µM Nec-1f, time 53880 s): -0.4072 µM; ΔSTY-BODIPY ([6]; 2 µM Nec-1f, time 53940 s): -0.4054 µM; ΔSTY-BODIPY ([6]; 2 µM Nec-1f, time 54000 s): -0.4034 µM; ΔSTY-BODIPY ([6]; 10 µM Nec-1f, time 53820 s): -0.5158 µM; ΔSTY-BODIPY ([6]; 10 µM Nec-1f, time 53880 s): -0.5141 µM; ΔSTY-BODIPY ([6]; 10 µM Nec-1f, time 53940 s): -0.5142 µM; ΔSTY-BODIPY ([6]; 10 µM Nec-1f, time 54000 s): -0.5122 µM |
| CCOC(=O)c1ccc(NC2CCCCC2)c(N)c1 [Fer-1, ferrostatin-1] | 96.6% and 93.5% and 69% | 79.5% and 84.2% and 82.8% and 86.9% | 89.5% and 93.6% and 90.5% | fail to rescue | not statistically significant | prevented; also recorded: complete reversal of LDH release | 22.94% and 23.84% and 16.99% | significantly attenuated | 95.0% and 94.0% and 92.0% | 94.1% and 94.0% | 90.0% and 90.2% | 93.0% and 79.0% | 95.0% and 92.0% | Effect on RSL3- and FINO2-induced ferroptosis ([1]; MCT cells): reversed; double-negative events (7-AAD/annexin V) ([1]; 10 µM FINO2 24 h): 96% and 77.1% and 92.8% and 95.9% and 89.7%; double-negative events (7-AAD/annexin V) ([1]; 10 µM ferroptocide 24 h): 86.2% and 85.5% and 72.2% and 89.6% and 67.8% and 73.5%; ΔSTY-BODIPY ([6]; 2 µM Fer-1, time 53820 s): -0.3745 µM; ΔSTY-BODIPY ([6]; 2 µM Fer-1, time 53880 s): -0.3737 µM; ΔSTY-BODIPY ([6]; 2 µM Fer-1, time 53940 s): -0.3729 µM; ΔSTY-BODIPY ([6]; 2 µM Fer-1, time 54000 s): -0.3705 µM; double-negative events (7-AAD/annexin V) ([7]; NIH3T3, 10 µM ferroptocide 24 h, alone (DMSO) or with Fer-1 1 µM, Nec-1s 30 µM, Nec-1f 30 µM): 76.5% and 92.2% and 95.9% and 92.6% |

From PMC8292346, “Dysfunction of the key ferroptosis-surveilling systems hypersensitizes mice to tubular necrosis during acute kidney injury” (Nature Communications, 2021)
